Measured values published in patent US8063221B2, “Aminoquinolones as GSK-3 inhibitors” (Kyorin Pharmaceutical Co., Ltd., priority 2006, dated 2011).
≈ marks a conversion by molar mass, not a printed value. Read-outs that look alike come from different tables or passages of the source.

Tests used:
E. coli, ATCC8739 = assay: Antibacterial activity (MIC), E. coli; format: cell-based; conditions: Escherichia coli
From the text: (§1) As used herein, a minimum inhibitory concentration (MIC) for bacterial growth assay is the lowest level of a compound needed to cause an inhibition to bacterial growth in culture medium. In certain embodiments, the antibacterial activity of compounds herein, measured as MIC.
(§2) In certain embodiments, GSK3 inhibitors provided herein are substantially free of antibacterial activity or having very low antibacterial activity. The antibacterial activity can be measured by methods known in the art by estimating a minimum inhibitory concentration (MIC) for test compounds. A MIC is the lowest level of a compound needed to cause an inhibition to bacterial growth in a culture medium. […] (Clinical and Laboratory Standards Institute. Methods for Dilution Antimicrobial Susceptibility Tests for Bacteria That Grow Aerobically; Approved Standard-Sixth Edition: CLSI document […]. CLSI, Wayne, Pa. (2003))
(§3) Antibacterial activity for E. coli, ATCC8739 andS. aureus Smith expressed as MIC (μM) is provided as follows: […]

S. aureus Smith = assay: Antibacterial activity (MIC), S. aureus; format: cell-based; conditions: Staphylococcus aureus
From the text: as §1, §2, §3

[1] = target: T1, recombinant full-length human GSK3β (Homo sapiens, UniProt P49841); assay: Luciferase-coupled cell-free GSK3β kinase assay; format: biochemical
T1 construct: recombinant full-length human GSK3β (Upstate); purchased Upstate
Experimental: For compounds in Tables 1 and 2, IC50 (μM) for GSK3β enzyme in cell free assay is provided as follows:
Luciferase-Coupled Protein Kinase Assays
All coupled-luciferase assays are performed by using a brief incubation with firefly luciferase (Promega) after completion of the kinase assay. KinaseGlo Plus is used for reading kinase reactions with ATP>10 μM, KinaseGlo for ATP <10 μM. The assay volume in a 384-well plate for the kinase reaction is 30 microliters.
10-25 ng of recombinant full-length human GSK3β (Upstate) is incubated in the presence or absence of compound at varying concentrations for 1 hour at 30 degrees Celsius in 20 mM MOPS, pH 7.0, 10 mM magnesium acetate, 0.2 mM EDTA, 2 mM EGTA, 30 mM magnesium chloride, 62.5 μM phospho-glycogen synthase peptide-2, 5 μM ATP, 10 mM β-glycerol phosphate, 1 mM sodium orthovanadate and 1 mM dithiothreitol. Proceed to KinaseGlo luciferase reaction (see below).
Following the completion of the kinase reaction an equal volume of KinaseGlo or KinaseGlo Plus luciferase reagent (Promega) is added and the luminescence read using a luminescence plate reader within 5-10 minutes. Compound activity is expressed as % inhibition relative to maximal inhibition observed at the maximal dose and IC50 values then calculated using curve fitting software (GraphPad Prizm).

[2] = ATCC8739, Table 2, E. coli ATCC8739, read-out: Antimicrobial MIC [μM] E. Coli
[3] = Table 2, S. aureus Smith, read-out: Antimicrobial MIC [μM] S. aureus
[4] = ATCC8739, Table 1, E. coli ATCC8739, read-out: Antibacterial MIC (μM) E.Coli
[5] = Table 1, read-out: Antibacterial MIC (μM) S. aureus Smith

T1 sequence (P49841 whole entry): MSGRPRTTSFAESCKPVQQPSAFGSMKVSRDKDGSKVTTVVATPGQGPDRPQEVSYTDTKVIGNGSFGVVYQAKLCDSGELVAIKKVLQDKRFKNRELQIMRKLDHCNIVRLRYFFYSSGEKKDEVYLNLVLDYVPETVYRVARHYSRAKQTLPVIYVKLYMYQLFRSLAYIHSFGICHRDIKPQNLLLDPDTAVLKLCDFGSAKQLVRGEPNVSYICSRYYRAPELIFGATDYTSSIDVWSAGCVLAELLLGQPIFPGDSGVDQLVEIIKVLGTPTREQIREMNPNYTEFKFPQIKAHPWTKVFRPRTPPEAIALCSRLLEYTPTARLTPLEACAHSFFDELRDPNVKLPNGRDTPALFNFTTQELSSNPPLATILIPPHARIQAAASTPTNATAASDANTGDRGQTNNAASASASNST

In the case of `CC(C)C[C@H]1COc2c(NCCNc3ccccn3)c(F)c(N)c3c(=O)c(C(=O)O)cn1c23` [compound 51], the MIC (E. coli, ATCC8739; [2]) is reported as 10 to 50 µM (≈ 4.55 to 22.8 µg/mL), the MIC (S. aureus Smith; [3]) is reported as 10 to 50 µM (≈ 4.55 to 22.8 µg/mL) and the IC50 ([1]; Table 2) is reported as < 100 nM.
`CCOC(=O)CCNc1c(F)c(N)c2c(=O)ccn(C3CC3)c2c1OC` [Example 125] was tested, and the MIC (E. coli, ATCC8739; [2]) was > 50 µM, the MIC (S. aureus Smith; [3]) was > 50 µM and the IC50 ([1]; Table 2) was 100 to 500 nM.
`COc1c(NCCCc2ccccc2)c(F)c(N)c2c(=O)ccn(C3CC3)c12` [compound 1] showed an MIC (E. coli, ATCC8739; [2]) of 10 to 50 µM (≈ 3.81 to 19.1 µg/mL), an MIC (S. aureus Smith; [3]) of 10 to 50 µM (≈ 3.81 to 19.1 µg/mL) and an IC50 ([1]; Table 2) of 100 to 500 nM.
`COc1c(NCCCn2ccnc2)c(F)c(N)c2c(=O)c(C(=O)O)cn(C3CCCC3)c12` [compound 78] was tested, and the MIC (E. coli, ATCC8739; [4]) was > 50 µM, the MIC (S. aureus Smith; [5]) was > 50 µM and the IC50 ([1]; Table 1) was 500 to 1000 nM.
In the case of `CC1(C)COc2c(NCCCn3ccnc3)c(F)c(N)c3c(=O)ccn1c23` [compound 79], the MIC (E. coli, ATCC8739; ATCC8739, read-out: Antimicrobial MIC [μM] E. Coli) is reported as > 50 µM, the MIC (S. aureus Smith; read-out: Antimicrobial MIC [μM] S. aureus) is reported as > 50 µM and the IC50 ([1]; Table 2) is reported as < 100 nM.
For `C[C@H]1COc2c(NCCCn3cnc4ccccc43)c(F)c(N)c3c(=O)c(C(=O)O)cn1c23` [compound 19], the MIC (E. coli, ATCC8739; [2]) was 10 to 50 µM (≈ 4.51 to 22.6 µg/mL), the MIC (S. aureus Smith; [3]) was 0.5 to 10 µM (≈ 0.226 to 4.51 µg/mL) and the IC50 ([1]; Table 2) was < 100 nM.
With `COc1c(NCCc2cccnc2)c(F)c(N)c2c(=O)c(C(=O)O)cn(C3CC3)c12` [compound 85] the MIC (E. coli, ATCC8739; ATCC8739, read-out: Antibacterial MIC (μM) E.Coli) was 0.5 to 10 µM (≈ 0.206 to 4.12 µg/mL), the MIC (S. aureus Smith; read-out: Antibacterial MIC (μM) S. aureus Smith) was < 0.5 µM and the IC50 ([1]; Table 1) was > 1000 nM.
For `COc1c(NCCc2ccncc2)c(F)c(N)c2c(=O)c(C(=O)O)cn(C3CC3)c12` [compound 68], the MIC (E. coli, ATCC8739; [4]) was 10 to 50 µM (≈ 4.12 to 20.6 µg/mL), the MIC (S. aureus Smith; [5]) was 0.5 to 10 µM (≈ 0.206 to 4.12 µg/mL) and the IC50 ([1]; Table 1) was 500 to 1000 nM.
For `CC(C)[C@@H]1COc2c(NCCCc3ccccc3)c(F)c(N)c3c(=O)c(C(=O)O)cn1c23` [compound 64], the MIC (E. coli, ATCC8739; [2]) was 0.5 to 10 µM (≈ 0.22 to 4.39 µg/mL), the MIC (S. aureus Smith; [3]) was 0.5 to 10 µM (≈ 0.22 to 4.39 µg/mL) and the IC50 ([1]; Table 2) was < 100 nM.
With `CC1(C)COc2c(NCCCc3ccccc3)c(F)c(N)c3c(=O)c(C(=O)O)cn(c23)C1` [compound 25] the MIC (E. coli, ATCC8739; [2]) was 0.5 to 10 µM (≈ 0.22 to 4.39 µg/mL), the MIC (S. aureus Smith; [3]) was 0.5 to 10 µM (≈ 0.22 to 4.39 µg/mL) and the IC50 ([1]; Table 2) was < 100 nM.
In the case of `COc1c(NCCNc2ccccn2)c(F)c(N)c2c(=O)c(C(=O)O)cn(C3CCCC3)c12` [compound 77], the MIC (E. coli, ATCC8739; [4]) is reported as 10 to 50 µM (≈ 4.55 to 22.8 µg/mL), the MIC (S. aureus Smith; [5]) is reported as 0.5 to 10 µM (≈ 0.228 to 4.55 µg/mL) and the IC50 ([1]; Table 1) is reported as > 1000 nM.
`CC(C)OCCCNc1c(F)c(N)c2c(=O)c(C(=O)O)cn3c2c1OCC3C` (stereo not drawn) [compound 4] was tested, and the MIC (E. coli, ATCC8739; [2]) was > 50 µM, the MIC (S. aureus Smith; [3]) was 0.5 to 10 µM (≈ 0.197 to 3.93 µg/mL) and the IC50 ([1]; Table 2) was 100 to 500 nM.
In the case of `C[C@@H]1COc2c(NCCNc3ccccn3)c(F)c(N)c3c(=O)c(C(=O)O)cn1c23` [compound 30], the MIC (E. coli, ATCC8739; [2]) is reported as > 50 µM, the MIC (S. aureus Smith; [3]) is reported as > 50 µM and the IC50 ([1]; Table 2) is reported as 500 to 1000 nM.
In the case of `Nc1c(F)c(NCCCn2ccnc2)c(F)c2c1c(=O)c(C(=O)O)cn2C1CCCC1` [compound 54], the MIC (E. coli, ATCC8739; [4]) is reported as > 50 µM, the MIC (S. aureus Smith; [5]) is reported as > 50 µM and the IC50 ([1]; Table 1) is reported as < 100 nM.
In the case of `CC(C)C[C@H]1COc2c(NCCCn3cnc4ccccc43)c(F)c(N)c3c(=O)c(C(=O)O)cn1c23` [compound 48], the MIC (E. coli, ATCC8739; [2]) is reported as 10 to 50 µM (≈ 4.94 to 24.7 µg/mL), the MIC (S. aureus Smith; [3]) is reported as 10 to 50 µM (≈ 4.94 to 24.7 µg/mL) and the IC50 ([1]; Table 2) is reported as < 100 nM.
With `CC1COc2c(NCCNc3nc(F)c(F)cc3F)c(F)c(N)c3c(=O)c(C(=O)O)cn1c23` (stereo not drawn) [compound 13] the MIC (E. coli, ATCC8739; [2]) was 10 to 50 µM (≈ 4.67 to 23.4 µg/mL), the MIC (S. aureus Smith; [3]) was 0.5 to 10 µM (≈ 0.234 to 4.67 µg/mL) and the IC50 ([1]; Table 2) was < 100 nM.
Work on `CC(C)OCCCNc1c(F)c(N)c2c(=O)ccn(CCc3ccccc3)c2c1F` [compound 60] yielded an MIC (E. coli, ATCC8739; [4]) of 10 to 50 µM (≈ 4.15 to 20.8 µg/mL), an MIC (S. aureus Smith; [5]) of 10 to 50 µM (≈ 4.15 to 20.8 µg/mL) and an IC50 ([1]; Table 1) of 500 to 1000 nM.
For `CC1COc2c(NCCNc3ccccn3)c(F)c(N)c3c(=O)c(C(=O)O)cn1c23` (stereo not drawn) [compound 90], the MIC (E. coli, ATCC8739; [4]) was 0.5 to 10 µM (≈ 0.207 to 4.13 µg/mL), the MIC (S. aureus Smith; [5]) was 0.5 to 10 µM (≈ 0.207 to 4.13 µg/mL) and the IC50 ([1]; Table 1) was < 100 nM.
For `CC(C)(C)OC(=O)NCCNc1c(F)c(N)c2c(=O)ccn(C3CC3)c2c1F` [compound 29], the MIC (E. coli, ATCC8739; [4]) was > 50 µM, the MIC (S. aureus Smith; [5]) was > 50 µM and the IC50 ([1]; Table 1) was 100 to 500 nM.
With `CC1COc2c(NCCNc3cccc(F)n3)c(F)c(N)c3c(=O)c(C(=O)O)cn1c23` (stereo not drawn) [compound 14] the MIC (E. coli, ATCC8739; [2]) was 10 to 50 µM (≈ 4.31 to 21.6 µg/mL), the MIC (S. aureus Smith; [3]) was 0.5 to 10 µM (≈ 0.216 to 4.31 µg/mL) and the IC50 ([1]; Table 2) was < 100 nM.
In the case of `COc1c(NCCNc2ccc(C(=O)O)cn2)c(F)c(N)c2c(=O)ccn(C3CC3)c12` [Example 137], the MIC (E. coli, ATCC8739; [2]) is reported as > 50 µM, the MIC (S. aureus Smith; [3]) is reported as > 50 µM and the IC50 ([1]; Table 2) is reported as < 100 nM.
With `Nc1c(F)c(NCCCc2ccccc2)c(F)c2c1c(=O)c(C(=O)O)cn2C1CCCC1` [compound 52] the MIC (E. coli, ATCC8739; [4]) was 10 to 50 µM (≈ 4.41 to 22.1 µg/mL), the MIC (S. aureus Smith; [5]) was 10 to 50 µM (≈ 4.41 to 22.1 µg/mL) and the IC50 ([1]; Table 1) was < 100 nM.
In the case of `COc1c(NCCCOc2ccccc2)c(F)c(N)c2c(=O)c(C(=O)O)cn(C3CC3)c12` [compound 82], the MIC (E. coli, ATCC8739; [4]) is reported as 10 to 50 µM (≈ 4.41 to 22.1 µg/mL), the MIC (S. aureus Smith; [5]) is reported as 10 to 50 µM (≈ 4.41 to 22.1 µg/mL) and the IC50 ([1]; Table 1) is reported as > 1000 nM.
